Data published in patent US6472348B1, “Pyridone derivatives and herbicides” (Kumiai Chemical Industry Co., Ltd., priority 1996, dated 2002).

Columns and labels:
barnyardgrass (Ec) [1] = experiment: Test Example 1: herbicidal effects by paddy field soil treatment; assay type: in vivo; details: 100 g of the active ingredient per 10 ares, 21st day after the application, index 0-5 of Table 47;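 also: grade of growth control; 5 = at least 90%; 4 = 70 to 90%; 3 = 50 to 70%; 2 = 30 to 50%; 1 = 10 to 30%; 0 = under 10%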
Method in brief: (§1)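 Greenhouse pot test in flooded paddy soil, dosed at 100 g a.i. per 10 ares; effect scored on day 21.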

bulrush (Sc) = experiment: as above; assay type: in vivo; details: 100 g of the active ingredient per 10 ares, 21st day after the application, index 0-5 of Table 47;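 also: grade of growth control; 5 = at least 90%; 4 = 70 to 90%; 3 = 50 to 70%; 2 = 30 to 50%; 1 = 10 to 30%; 0 = under 10%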
Method in brief: as §1

monochoria (Mo) = experiment: as above; assay type: in vivo; details: 100 g of the active ingredient per 10 ares, 21st day after the application, index 0-5 of Table 47;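 also: grade of growth control; 5 = at least 90%; 4 = 70 to 90%; 3 = 50 to 70%; 2 = 30 to 50%; 1 = 10 to 30%; 0 = under 10%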
Method in brief: as §1

Digitaria ciliaris (Di) = experiment: Test Example 2: herbicidal effects by upland field soil treatment; assay type: in vivo; details: 100 g of the active ingredient per 10 ares, evaluated on the 21st day after application;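 also: grade of growth control; 5 = at least 90%; 4 = 70 to 90%; 3 = 50 to 70%; 2 = 30 to 50%; 1 = 10 to 30%; 0 = under 10%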
Excerpt: (§2) (Test on Herbicidal Effects by Upland Field Soil Treatment)

barnyardgrass (Ec) [2] = experiment: as above; assay type: in vivo; details: 100 g of the active ingredient per 10 ares, evaluated on the 21st day after application
Excerpt: as §2

[3] = system: common lambsquarters (Ch); experiment: as above; assay type: in vivo; details: 100 g of the active ingredient per 10 ares, evaluated on the 21st day after application
Excerpt: as §2

pale smartweed (Po) [4] = experiment: as above; assay type: in vivo; details: 100 g of the active ingredient per 10 ares, evaluated on the 21st day after application
Excerpt: as §2

rice flatsedge (Ci) [5] = experiment: as above; assay type: in vivo; details: 100 g of the active ingredient per 10 ares, evaluated on the 21st day after application
Excerpt: as §2

slender amaranth (Am) [6] = experiment: as above; assay type: in vivo; details: 100 g of the active ingredient per 10 ares, evaluated on the 21st day after application
Excerpt: as §2

Diaitaria ciliaris (Di) = experiment: Test Example 3: herbicidal effects by upland field foliage treatment; assay type: in vivo; design: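 grade of growth control; 5 = at least 90%; 4 = 70 to 90%; 3 = 50 to 70%; 2 = 30 to 50%; 1 = 10 to 30%; 0 = under 10%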; details: 100 g active ingredient per 10 ares, evaluated 14th day after treatment
Method in brief: (§3)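 Post-emergence upland foliage test. Seedlings grown 2 weeks under glass in pots (120 cm^2) of sand, seed topped with soil; treated on the foliage, kept in greenhouse, then assessed at day 14 using rating standards.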

barnyardgrass (Ec) [7] = experiment: as above; assay type: in vivo; design: scale not given here; details: 100 g active ingredient per 10 ares, evaluated 14th day after treatment
Method in brief: as §3

[8] = system: common lambsquarters (Ch); experiment: as above; assay type: in vivo; design: scale not given here; details: 100 g active ingredient per 10 ares, evaluated 14th day after treatment
Method in brief: as §3

pale smartweed (Po) [9] = experiment: as above; assay type: in vivo; design: scale not given here; details: 100 g active ingredient per 10 ares, evaluated 14th day after treatment
Method in brief: as §3

rice flatsedge (Ci) [10] = experiment: as above; assay type: in vivo; design: scale not given here; details: 100 g active ingredient per 10 ares, evaluated 14th day after treatment
Method in brief: as §3

slender amaranth (Am) [11] = experiment: as above; assay type: in vivo; design: scale not given here; details: 100 g active ingredient per 10 ares, evaluated 14th day after treatment
Method in brief: as §3

wheat (Tr) = experiment: Test Example 9: crop plant selectivity by upland field foliage treatment (wheat), phytotoxicity; details: dose 1.6 g ai/10a, 14th day after treatment
Method in brief: (§4)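 Seeds of wheat, pale smartweed, slender amaranth, common lambsquarters and China jute are sown in sand and grown 2 weeks under glass. Foliage is then treated, culture resumes in the greenhouse, and damage is graded on the 14th day.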

China jute (Ab) [12] = experiment: Test Example 9: crop plant selectivity by upland field foliage treatment (wheat), herbicidal effects; assay type: in vivo; design: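 grade of growth control; 5 = at least 90%; 4 = 70 to 90%; 3 = 50 to 70%; 2 = 30 to 50%; 1 = 10 to 30%; 0 = under 10%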; details: dose 1.6 g ai/10a, 14th day after treatment
Method in brief: as §4

[13] = system: common lambsquarters (Ch); experiment: as above; assay type: in vivo; design: scale not given here; details: dose 1.6 g ai/10a, 14th day after treatment
Method in brief: as §4

pale smartweed (Po) [14] = experiment: as above; assay type: in vivo; design: scale not given here; details: dose 1.6 g ai/10a, 14th day after treatment
Method in brief: as §4

slender amaranth (Am) [15] = experiment: as above; assay type: in vivo; design: scale not given here; details: dose 1.6 g ai/10a, 14th day after treatment
Method in brief: as §4

soybean (Gl) = experiment: Test Example 10: crop plant selectivity by upland field foliage treatment (soybean), phytotoxicity; details: dose 1.6 g ai/10a, 14th day after treatment
Protocol: (§5) (Test on Crop Plant Selectivity by Upland Field Foliage Treatment)
(§6) In a plastic pot (surface area: 600 cm^2) filled with sand, soybean (Gl), pale smartweed (Po), slender amaranth (Am), common lambsquarters (Ch) and China jute (Ab) were sown and cultured in a green house for 2 weeks. […] The plants were then cultured in a green house, and the evaluation of the herbicidal effects and phytotoxicity was conducted on the 14th day after the treatment in accordance with the standards as identified in Table 47.

China jute (Ab) [16] = experiment: Test Example 10: crop plant selectivity by upland field foliage treatment (soybean), herbicidal effects; assay type: in vivo; details: dose 1.6 g ai/10a, 14th day after treatment
Protocol: as §5, §6

[17] = system: common lambsquarters (Ch); experiment: as above; assay type: in vivo; details: dose 1.6 g ai/10a, 14th day after treatment
Protocol: as §5, §6

pale smartweed (Po) [18] = experiment: as above; assay type: in vivo; details: dose 1.6 g ai/10a, 14th day after treatment
Protocol: as §5, §6

slender amaranth (Am) [19] = experiment: as above; assay type: in vivo; details: dose 1.6 g ai/10a, 14th day after treatment
Protocol: as §5, §6

corn (Ze) = experiment: Test Example 11: crop plant selectivity by upland field foliage treatment (corn), phytotoxicity; details: upland field foliage treatment, dose 1.6 g ai/10a, 14th day after treatment
Method in brief: (§7)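 Corn and the weed species were sown together in sand-filled pots and grown in a greenhouse for 2 weeks before foliar treatment. Herbicidal effect was scored on day 14 after treatment against a graded standard scale, with corn phytotoxicity scored alongside.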

China jute (Ab) [20] = experiment: Test Example 11: crop plant selectivity by upland field foliage treatment (corn), herbicidal effects; assay type: in vivo; design: scale not given here; details: upland field foliage treatment (corn test), dose 1.6 g ai/10a, 14th day after treatment
Method in brief: as §7

[21] = system: common lambsquarters (Ch); experiment: as above; assay type: in vivo; design: scale not given here; details: upland field foliage treatment (corn test), dose 1.6 g ai/10a, 14th day after treatment
Method in brief: as §7

pale smartweed (Po) [22] = experiment: as above; assay type: in vivo; design: scale not given here; details: upland field foliage treatment (corn test), dose 1.6 g ai/10a, 14th day after treatment
Method in brief: as §7

slender amaranth (Am) [23] = experiment: as above; assay type: in vivo; design: scale not given here; details: upland field foliage treatment (corn test), dose 1.6 g ai/10a, 14th day after treatment
Method in brief: as §7

Cn1c(C(F)(F)F)ccc(-c2cc(C(=O)OC3CCCC3)c(Cl)cc2F)c1=O [Compound 1-184]
Herbicidal effects Ec (barnyardgrass (Ec) [1]): 5 | Herbicidal effects Sc (bulrush (Sc)): 5 | Herbicidal effects Mo (monochoria (Mo)): 5 | Herbicidal effects Di (Digitaria ciliaris (Di)): 5 | Herbicidal effects Ec (barnyardgrass (Ec) [2]): 5 | Herbicidal effects Ch [3]: 5 | Herbicidal effects Po (pale smartweed (Po) [4]): 5 | Herbicidal effects Ci (rice flatsedge (Ci) [5]): 5 | Herbicidal effects Am (slender amaranth (Am) [6]): 5 | Herbicidal effects Di (Diaitaria ciliaris (Di)): 5 | Herbicidal effects Ec (barnyardgrass (Ec) [7]): 5 | Herbicidal effects Ch [8]: 5 | Herbicidal effects Po (pale smartweed (Po) [9]): 5 | Herbicidal effects Ci (rice flatsedge (Ci) [10]): 5 | Herbicidal effects Am (slender amaranth (Am) [11]): 5 | Phytotoxicity Tr (wheat (Tr)): 2 | Herbicidal effects Ab (China jute (Ab) [12]): 5 | Herbicidal effects Ch [13]: 5 | Herbicidal effects Po (pale smartweed (Po) [14]): 5 | Herbicidal effects Am (slender amaranth (Am) [15]): 5 | Phytotoxicity Gl (soybean (Gl)): 2 | Herbicidal effects Ab (China jute (Ab) [16]): 5 | Herbicidal effects Ch [17]: 5 | Herbicidal effects Po (pale smartweed (Po) [18]): 5 | Herbicidal effects Am (slender amaranth (Am) [19]): 5 | Phytotoxicity Ze (corn (Ze)): 1 | Herbicidal effects Ab (China jute (Ab) [20]): 5 | Herbicidal effects Ch [21]: 5 | Herbicidal effects Po (pale smartweed (Po) [22]): 5 | Herbicidal effects Am (slender amaranth (Am) [23]): 5

CCCOCc1cc2c(-c3ccc(C(F)(F)F)n(C)c3=O)c(F)cc(Cl)c2o1 [Compound 4-32]
Herbicidal effects Ec (barnyardgrass (Ec) [1]): 5 | Herbicidal effects Sc (bulrush (Sc)): 5 | Herbicidal effects Mo (monochoria (Mo)): 5 | Herbicidal effects Di (Digitaria ciliaris (Di)): 5 | Herbicidal effects Ec (barnyardgrass (Ec) [2]): 5 | Herbicidal effects Ch [3]: 5 | Herbicidal effects Po (pale smartweed (Po) [4]): 5 | Herbicidal effects Ci (rice flatsedge (Ci) [5]): 5 | Herbicidal effects Am (slender amaranth (Am) [6]): 5 | Herbicidal effects Di (Diaitaria ciliaris (Di)): 5 | Herbicidal effects Ec (barnyardgrass (Ec) [7]): 5 | Herbicidal effects Ch [8]: 5 | Herbicidal effects Po (pale smartweed (Po) [9]): 5 | Herbicidal effects Ci (rice flatsedge (Ci) [10]): 5 | Herbicidal effects Am (slender amaranth (Am) [11]): 5 | Phytotoxicity Tr (wheat (Tr)): 2 | Herbicidal effects Ab (China jute (Ab) [12]): 5 | Herbicidal effects Ch [13]: 5 | Herbicidal effects Po (pale smartweed (Po) [14]): 5 | Herbicidal effects Am (slender amaranth (Am) [15]): 5 | Phytotoxicity Gl (soybean (Gl)): 2 | Herbicidal effects Ab (China jute (Ab) [16]): 5 | Herbicidal effects Ch [17]: 5 | Herbicidal effects Po (pale smartweed (Po) [18]): 5 | Herbicidal effects Am (slender amaranth (Am) [19]): 5 | Phytotoxicity Ze (corn (Ze)): 2 | Herbicidal effects Ab (China jute (Ab) [20]): 5 | Herbicidal effects Ch [21]: 5 | Herbicidal effects Po (pale smartweed (Po) [22]): 5 | Herbicidal effects Am (slender amaranth (Am) [23]): 5

C#CCOCc1cc(-c2ccc(C(F)(F)F)n(C)c2=O)c(F)cc1Cl [Compound No. 1-199, 3-(4-chloro-2-fluoro-5-propargyloxymethylphenyl)-1-methyl-6-trifluoromethyl-2(1H)-pyridone]
Herbicidal effects Ec (barnyardgrass (Ec) [1]): 5 | Herbicidal effects Sc (bulrush (Sc)): 5 | Herbicidal effects Mo (monochoria (Mo)): 5 | Herbicidal effects Di (Digitaria ciliaris (Di)): 5 | Herbicidal effects Ec (barnyardgrass (Ec) [2]): 5 | Herbicidal effects Ch [3]: 5 | Herbicidal effects Po (pale smartweed (Po) [4]): 5 | Herbicidal effects Ci (rice flatsedge (Ci) [5]): 5 | Herbicidal effects Am (slender amaranth (Am) [6]): 5 | Herbicidal effects Di (Diaitaria ciliaris (Di)): 5 | Herbicidal effects Ec (barnyardgrass (Ec) [7]): 4 | Herbicidal effects Ch [8]: 5 | Herbicidal effects Po (pale smartweed (Po) [9]): 5 | Herbicidal effects Ci (rice flatsedge (Ci) [10]): 5 | Herbicidal effects Am (slender amaranth (Am) [11]): 5 | Phytotoxicity Tr (wheat (Tr)): 2 | Herbicidal effects Ab (China jute (Ab) [12]): 5 | Herbicidal effects Ch [13]: 5 | Herbicidal effects Po (pale smartweed (Po) [14]): 5 | Herbicidal effects Am (slender amaranth (Am) [15]): 5 | Phytotoxicity Gl (soybean (Gl)): 2 | Herbicidal effects Ab (China jute (Ab) [16]): 5 | Herbicidal effects Ch [17]: 5 | Herbicidal effects Po (pale smartweed (Po) [18]): 5 | Herbicidal effects Am (slender amaranth (Am) [19]): 5 | Phytotoxicity Ze (corn (Ze)): 2 | Herbicidal effects Ab (China jute (Ab) [20]): 5 | Herbicidal effects Ch [21]: 5 | Herbicidal effects Po (pale smartweed (Po) [22]): 5 | Herbicidal effects Am (slender amaranth (Am) [23]): 5 | melting point: 99 to 101 °C
